In US12077503B2, “Substituted cyclic amides and their use as herbicides” (FMC CORPORATION, priority 2015, dated 2024):

Assays:
Type in all cases: in vivo
[1] = system: rice (Oryra sativa); assay: Test B flooded paddy test; conditions: Oryza sativa, 250 g ai/ha, Flood; 0 to 100 scale where 0 is no effect and 100 is complete control; read-out: Rice plant response rating
Outline: (§1)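 Compound goes directly into floodwater once pots are flooded 3 cm above soil, targeting plants at two leaves; the water depth is then held for the test duration. Plants sit 13–15 d in a greenhouse and are rated visually, 100 denoting complete control.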

[2] = system: ducksalad (Heteranthera limosa); assay: Test B flooded paddy test; conditions: Heteranthera limosa, 250 g ai/ha, Flood; 0 to 100 scale where 0 is no effect and 100 is complete control; read-out: Ducksalad plant response rating
Outline: as §1

[3] = system: sedge, umbrella (small-flower umbrella sedge, Cyperus difformis); assay: Test B flooded paddy test; conditions: Cyperus difformis, 250 g ai/ha, Flood; 0 to 100 scale where 0 is no effect and 100 is complete control; read-out: Sedge, Umbrella plant response rating
Outline: as §1

[4] = system: barnyardgrass (Echinochloa crus-galli); assay: Test B flooded paddy test; conditions: Echinochloa crus-galli, 250 g ai/ha, Flood; 0 to 100 scale where 0 is no effect and 100 is complete control; read-out: Barnyardgrass plant response rating
Outline: as §1

[5] = system: ryegrass, Italian (Italian ryegrass, Lolium multiflorum); assay: Test A preemergence; conditions: Lolium multiflorum, pre-emergence, 240 h, 0 to 100 scale where 0 is no effect and 100 is complete control, read-out: Ryegrass, Italian plant response rating; for pest or weed control at 31 g/ha: 31 g ai/ha, Preemergence; for pest or weed control at 125 g/ha: 125 g ai/ha, preemergence, approx. 10 d
Outline: (§2)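 Ratings of 0 (no effect) to 100 (complete control) come from visual comparison with untreated controls roughly 10 d after treatment. Test chemicals, formulated in a non-phytotoxic solvent mixture with surfactant, were applied either as a preemergence directed soil spray on seeded soil or postemergence to one- to two-leaf plants 2 to 10 cm tall.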

[6] = system: giant foxtail (Setaria faberii); assay: Test A preemergence; conditions: Setaria faberi, pre-emergence, 240 h, 0 to 100 scale where 0 is no effect and 100 is complete control, read-out: Foxtail, Giant plant response rating; for pest or weed control at 31 g/ha: 31 g ai/ha, Preemergence; for pest or weed control at 125 g/ha: 125 g ai/ha, preemergence, approx. 10 d
Outline: as §2

[7] = system: Kochia (Kochia scoparia); assay: Test A preemergence; conditions: Bassia scoparia, pre-emergence, 240 h, 0 to 100 scale where 0 is no effect and 100 is complete control, read-out: Kochia plant response rating; for pest or weed control at 31 g/ha: 31 g ai/ha, Preemergence; for pest or weed control at 125 g/ha: 125 g ai/ha, preemergence, approx. 10 d
Outline: as §2

[8] = system: barnyardgrass (Echinochloa crus-galli); assay: Test A preemergence; conditions: Echinochloa crus-galli, pre-emergence, 240 h, 0 to 100 scale where 0 is no effect and 100 is complete control, read-out: Barnyardgrass plant response rating; for pest or weed control at 31 g/ha: 31 g ai/ha, Preemergence; for pest or weed control at 125 g/ha: 125 g ai/ha, preemergence, approx. 10 d
Outline: as §2

[9] = system: pigweed (Amaranthus retroflexus); assay: Test A preemergence; conditions: Amaranthus retroflexus, pre-emergence, 240 h, 0 to 100 scale where 0 is no effect and 100 is complete control, read-out: Pigweed plant response rating; for pest or weed control at 31 g/ha: 31 g ai/ha, Preemergence; for pest or weed control at 125 g/ha: 125 g ai/ha, preemergence, approx. 10 d
[10] = system: ragweed (common ragweed, Ambrosia elatior); assay: Test A preemergence; conditions: Ambrosia artemisiifolia, pre-emergence, 240 h, 0 to 100 scale where 0 is no effect and 100 is complete control, read-out: Ragweed plant response rating; for pest or weed control at 31 g/ha: 31 g ai/ha, Preemergence; for pest or weed control at 125 g/ha: 125 g ai/ha, preemergence, approx. 10 d
Outline: as §2

[11] = system: ryegrass, Italian (Italian ryegrass, Lolium multiflorum); assay: Test A postemergence; conditions: Lolium multiflorum, post-emergence, 240 h; for pest or weed control at 125 g/ha: 125 g ai/ha, postemergence, visual injury vs untreated controls after approx. 10 d, 0 = no effect, 100 = complete control, read-out: Ryegrass, Italian plant response rating (0 to 100 scale); for pest or weed control at 31 g/ha: Postemergence, 31 g ai/ha, visual injury after approx. 10 d, 0 to 100 scale, 0 no effect, 100 complete control, read-out: Plant response rating, Ryegrass, Italian
Outline: as §2

[12] = system: wheat (Triticum aestivum); assay: Test A postemergence; conditions: Triticum aestivum, post-emergence, 240 h; for plant injury at 125 g/ha: 125 g ai/ha, postemergence, visual injury vs untreated controls after approx. 10 d, 0 = no effect, 100 = complete control, read-out: Wheat plant response rating (0 to 100 scale); for plant injury at 31 g/ha: Postemergence, 31 g ai/ha, visual injury after approx. 10 d, 0 to 100 scale, 0 no effect, 100 complete control, read-out: Plant response rating, Wheat
Outline: as §2

[13] = system: blackgrass (Alopecurus myosuroides); assay: Test A postemergence; conditions: Alopecurus myosuroides, post-emergence, 240 h; for pest or weed control at 125 g/ha: 125 g ai/ha, postemergence, visual injury vs untreated controls after approx. 10 d, 0 = no effect, 100 = complete control, read-out: Blackgrass plant response rating (0 to 100 scale); for pest or weed control at 31 g/ha: Postemergence, 31 g ai/ha, visual injury after approx. 10 d, 0 to 100 scale, 0 no effect, 100 complete control, read-out: Plant response rating, Blackgrass
Outline: as §2

[14] = system: giant foxtail (Setaria faberii); assay: Test A postemergence; conditions: Setaria faberi, post-emergence, 240 h; for pest or weed control at 125 g/ha: 125 g ai/ha, postemergence, visual injury vs untreated controls after approx. 10 d, 0 = no effect, 100 = complete control, read-out: Foxtail, Giant plant response rating (0 to 100 scale); for pest or weed control at 31 g/ha: Postemergence, 31 g ai/ha, visual injury after approx. 10 d, 0 to 100 scale, 0 no effect, 100 complete control, read-out: Plant response rating, Foxtail, Giant
Outline: as §2

[15] = system: Galium (catchweed bedstraw, Galium aparine); assay: Test A postemergence; conditions: Galium, post-emergence, 240 h; for pest or weed control at 125 g/ha: 125 g ai/ha, postemergence, visual injury vs untreated controls after approx. 10 d, 0 = no effect, 100 = complete control, read-out: Galium plant response rating (0 to 100 scale); for pest or weed control at 31 g/ha: Postemergence, 31 g ai/ha, visual injury after approx. 10 d, 0 to 100 scale, 0 no effect, 100 complete control, read-out: Plant response rating, Galium
Outline: as §2

[16] = system: Kochia (Kochia scoparia); assay: Test A postemergence; conditions: Bassia scoparia, post-emergence, 240 h; for pest or weed control at 125 g/ha: 125 g ai/ha, postemergence, visual injury vs untreated controls after approx. 10 d, 0 = no effect, 100 = complete control, read-out: Kochia plant response rating (0 to 100 scale); for pest or weed control at 31 g/ha: Postemergence, 31 g ai/ha, visual injury after approx. 10 d, 0 to 100 scale, 0 no effect, 100 complete control, read-out: Plant response rating, Kochia
Outline: as §2

[17] = system: barnyardgrass (Echinochloa crus-galli); assay: Test A postemergence; conditions: Echinochloa crus-galli, post-emergence, 240 h; for pest or weed control at 125 g/ha: 125 g ai/ha, postemergence, visual injury vs untreated controls after approx. 10 d, 0 = no effect, 100 = complete control, read-out: Barnyardgrass plant response rating (0 to 100 scale); for pest or weed control at 31 g/ha: Postemergence, 31 g ai/ha, visual injury after approx. 10 d, 0 to 100 scale, 0 no effect, 100 complete control, read-out: Plant response rating, Barnyardgrass
Outline: as §2

[18] = system: corn (Zea mays); assay: Test A postemergence; conditions: Zea mays, post-emergence, 240 h; for plant injury at 125 g/ha: 125 g ai/ha, postemergence, visual injury vs untreated controls after approx. 10 d, 0 = no effect, 100 = complete control, read-out: Corn plant response rating (0 to 100 scale); for Corn plant response rating (crop injury, 0 = no effect, 100 = complete kill) at 31 g/ha: Postemergence, 31 g ai/ha, visual injury after approx. 10 d, 0 to 100 scale, 100 complete control
Outline: as §2

[19] = system: pigweed (Amaranthus retroflexus); assay: Test A postemergence; conditions: Amaranthus retroflexus, post-emergence, 240 h; for pest or weed control at 125 g/ha: 125 g ai/ha, postemergence, visual injury vs untreated controls after approx. 10 d, 0 = no effect, 100 = complete control, read-out: Pigweed plant response rating (0 to 100 scale); for pest or weed control at 31 g/ha: Postemergence, 31 g ai/ha, visual injury after approx. 10 d, 0 to 100 scale, 0 no effect, 100 complete control, read-out: Plant response rating, Pigweed
Outline: as §2

[20] = system: ragweed (common ragweed, Ambrosia elatior); assay: Test A postemergence; conditions: Ambrosia artemisiifolia, post-emergence, 240 h; for pest or weed control at 125 g/ha: 125 g ai/ha, postemergence, visual injury vs untreated controls after approx. 10 d, 0 = no effect, 100 = complete control, read-out: Ragweed plant response rating (0 to 100 scale); for pest or weed control at 31 g/ha: Postemergence, 31 g ai/ha, visual injury after approx. 10 d, 0 to 100 scale, 0 no effect, 100 complete control, read-out: Plant response rating, Ragweed
Outline: as §2

SMILES: O=C1NC[C@H](c2csc3c2CCCC3)[C@H]1C(=O)Nc1cccc(F)c1F [Compound 1163]
- pest or weed control at 250 g/ha [1]: 0%
- pest or weed control at 250 g/ha [2]: 95%
- pest or weed control at 250 g/ha [3]: 0%
- pest or weed control at 250 g/ha [4]: 30%
- pest or weed control at 31 g/ha [5]: 0%
- pest or weed control at 125 g/ha [5]: 0%
- pest or weed control at 31 g/ha [6]: 10%
- pest or weed control at 125 g/ha [6]: 60%
- pest or weed control at 31 g/ha [7]: 0%
- pest or weed control at 125 g/ha [7]: 20%
- pest or weed control at 31 g/ha [8]: 70%
- pest or weed control at 125 g/ha [8]: 90%
- pest or weed control at 31 g/ha [9]: 0%
- pest or weed control at 125 g/ha [9]: 0%
- pest or weed control at 31 g/ha [10]: 0%
- pest or weed control at 125 g/ha [10]: 0%
- pest or weed control at 125 g/ha [11]: 0%
- pest or weed control at 31 g/ha [11]: 0%
- plant injury at 125 g/ha [12]: 0%
- plant injury at 31 g/ha [12]: 0%
- pest or weed control at 125 g/ha [13]: 20%
- pest or weed control at 31 g/ha [13]: 0%
- pest or weed control at 125 g/ha [14]: 0%
- pest or weed control at 31 g/ha [14]: 0%
- pest or weed control at 125 g/ha [15]: 20%
- pest or weed control at 31 g/ha [15]: 0%
- pest or weed control at 125 g/ha [16]: 0%
- pest or weed control at 31 g/ha [16]: 0%
- pest or weed control at 125 g/ha [17]: 60%
- pest or weed control at 31 g/ha [17]: 30%
- plant injury at 125 g/ha [18]: 0%
- Corn plant response rating (crop injury, 0 = no effect, 100 = complete kill) at 31 g/ha [18]: 0%
- pest or weed control at 125 g/ha [19]: 0%
- pest or weed control at 31 g/ha [19]: 0%
- pest or weed control at 125 g/ha [20]: 0%
- pest or weed control at 31 g/ha [20]: 0%

SMILES: O=C1NC[C@H](c2csc3c2CCC3)[C@H]1C(=O)Nc1cccc(F)c1F [Compound 1164]
- pest or weed control at 250 g/ha [1]: 0%
- pest or weed control at 250 g/ha [2]: 95%
- pest or weed control at 250 g/ha [3]: 0%
- pest or weed control at 250 g/ha [4]: 40%
- pest or weed control at 31 g/ha [5]: 0%
- pest or weed control at 125 g/ha [5]: 0%
- pest or weed control at 31 g/ha [6]: 30%
- pest or weed control at 125 g/ha [6]: 30%
- pest or weed control at 31 g/ha [7]: 0%
- pest or weed control at 125 g/ha [7]: 20%
- pest or weed control at 31 g/ha [8]: 60%
- pest or weed control at 125 g/ha [8]: 80%
- pest or weed control at 31 g/ha [9]: 0%
- pest or weed control at 125 g/ha [9]: 0%
- pest or weed control at 31 g/ha [10]: 0%
- pest or weed control at 125 g/ha [10]: 0%
- pest or weed control at 125 g/ha [11]: 0%
- pest or weed control at 31 g/ha [11]: 0%
- plant injury at 125 g/ha [12]: 0%
- plant injury at 31 g/ha [12]: 0%
- pest or weed control at 125 g/ha [13]: 0%
- pest or weed control at 31 g/ha [13]: 0%
- pest or weed control at 125 g/ha [14]: 0%
- pest or weed control at 31 g/ha [14]: 0%
- pest or weed control at 125 g/ha [15]: 30%
- pest or weed control at 31 g/ha [15]: 0%
- pest or weed control at 125 g/ha [16]: 0%
- pest or weed control at 31 g/ha [16]: 0%
- pest or weed control at 125 g/ha [17]: 80%
- pest or weed control at 31 g/ha [17]: 30%
- plant injury at 125 g/ha [18]: 0%
- Corn plant response rating (crop injury, 0 = no effect, 100 = complete kill) at 31 g/ha [18]: 0%
- pest or weed control at 125 g/ha [19]: 0%
- pest or weed control at 31 g/ha [19]: 0%
- pest or weed control at 125 g/ha [20]: 0%
- pest or weed control at 31 g/ha [20]: 0%
